The values below come from patent publication US10889849B2, “Oxidized glutathione assay” (PROMEGA CORPORATION, priority 2010, dated 2021).

Type in all cases: cell-based
Data set [1] deals with A549 cells. As to the kind of experiment: Detection of reactive oxygen effects by sampling media (GSSG and GSH in cells and media). The note with it: 1 hour. The protocol: A549 cells were plated at a density of 5,000 cells per well in a 96-well tissue culture plate in 100 ul of DMEM with 10% fetal calf serum and incubated for 48 hours at 37° C. with 10% CO2. After incubation, the media was removed, discarded, and replaced with HBSS buffer with or without 40 uM menadione. The plate was then incubated for 1 hour at 37° C. with 10% CO2.
After the 1 hour treatment, the HBSS buffer from the cells was transferred to a fresh, 96-well plate. The cells were then given 100 ul of fresh HBSS buffer and a concentrated solution of PLB with or without NEM. The following conditions (in triplicate) resulted from these manipulations: • 1. Cell GSH and GSSG were measured from the lysate of cells where the vehicle or menadione treatment with HBSS buffer was removed prior to lysis. • 2. Media GSH and GSSG were measure from the HBSS buffer transferred from the cells. • 3. Total GSH and total GSSG were measured from the lysate of cells treated with HBSS buffer where the HBSS buffer was not removed prior to addition of PLB.
For measurement of GSSG, samples were given a mixture containing GST-22, 25 mM NEM, and 1× Passive Lysis Buffer. For measurement of GSH, samples were given a mixture containing GST-22 and 1× Passive Lysis Buffer. Samples were incubated for 5 minutes at room temperature, and 25 μl LDR with 100 mM DTT and GST added. Samples were then incubated for 30 minutes at room temperature, and 150 μl LDR added. Luminescence was detected after 15 minute room temperature incubation.
It should be noted that one could expect the total glutathione species from the media and the cells to be about equal to the total well measurement. This calculation is shown in the third row of Table 7. The ratio of GSH to GSSG was also determined (FIG. 10).

For a further data set, the system named is HepG2 cells. Description: Determination of GSH:GSSG ratio in HepG2 cells. The note with it: HepG2 cells, 5,000 cells/well, 60 minutes with 40 uM menadione. The protocol: (§1) The assay is optimized for low cell densities such as HeLa or HepG2 cells at 5,000-10,000 cells per well and hepatocytes at 10,000 to 20,000 cells/well. HeLa or HepG2 cells were plated on Corning Costar 3903 96-well flat bottom tissue culture-treated white with clear bottom. Hepatocytes were plated on BD BioCoat™ 4650 96-well Collagen 1 Cellware. Hepatocytes were cultured with vendor recommended hepatocyte media. If clear walled tissue culture plates are used, a transfer step must be performed after Luciferase Detection Reagent (LDR) addition to get the reactions into luminometer plates. Plate cells and incubate overnight at 37° C. in a 5% CO2 culture incubator.
(§2) Menadione is a Reactive Oxygen Species (ROS) inducer and is used as a positive control. 40 μM Menadione was prepared in Krebs-Ringer, Krebs-Henseleit, or Hank's Balanced Salts (HBSS) buffers. Other buffers […] to dilute the Menadione as components of cell culture media, such as serum, phenol red, and cysteine, can interfere with the assay chemistry. No treatment controls (vehicle only) were performed by exchanging the culture media on the cells with buffer+ vehicle at the same time as treating the cells with Menadione.
(§3) The below reagent was prepared for measurement of GSSG. […]
(§4) Compound treatment was removed and discarded from the adherent cells. […] Again, the plated was shook briefly, incubated at room temperature for 10 min, and luminescence read.
(§5) The […] is calculated by dividing the moles of GSH in a sample by the moles of GSSG in a sample. Because each mole of GSSG produces two moles of GSH, and the assay produces a signal from all of the GSH produced by reduction of GSSG, a 2-fold adjustment is required in the number of moles of GSH quantified by the GSH standard curve.
(§6) For background, the luminescence (RLUs) generated from no cell control or 0 μM GSH from the standard curve was used. […] The GSH/GSSG ratio for untreated cells was calculated using the formula: […]
iii. […] GSSG and GSH were detected by the method described in A. The ratio GSH/GSSG was calculated as described in B.

For a further data set, the system named is HeLa cells. As to the kind of experiment: Determination of GSH:GSSG ratio in HeLa cells. The note with it: HeLa cells, 5,000 cells/well, 60 minutes with 40 uM menadione. The protocol:
as §1, §2, §3, §4, §5, §6
i. […] GSSG and GSH were detected by the method described in A. The ratio GSH/GSSG was calculated as described in B.

The test system of the next data set is Jurkat cells. As to the kind of experiment: Determination of GSH:GSSG ratio in Jurkat cells. The note with it: 60 minutes with 40 uM menadione. The protocol: Suspension cells, such as Jurkat or […], are washed in Krebs-Ringer, Krebs-Henseleit, or Hank's Balanced Salts (HBSS) buffers to remove traces of medium and serum. Cells are then counted and diluted in one of the above buffers at the desired density. For Jurkat cells, 10,000 to 20,000 cells/well were used. 20 μl of cell suspension (at the desired density) were then added to wells of a 96-well plate. Enough wells with cells were plated for test compound treatment, vehicle-only treatment and no treatment controls. […]
as §4, §5, §6
iv. […] GSSG and GSH were detected by the method described in A. The ratio GSH/GSSG was calculated as described in B

The next data set relates to Rat hepatocytes. As to the kind of experiment: Determination of GSH:GSSG ratio in rat hepatocytes. The note with it: Rat hepatocytes, 20,000 cells/well, 60 minutes with 40 uM menadione. The protocol: as §1
Menadione is a Reactive Oxygen Species (ROS) inducer and is used as a positive control. 40 μM Menadione was prepared in Krebs-Ringer, Krebs-Henseleit, or Hank's Balanced Salts (HBSS) buffers. Other buffers […] to dilute the Menadione as components of cell culture media, such as serum, phenol red, and cysteine, can interfere with the assay chemistry. No treatment controls (vehicle only) were performed by exchanging the culture media on the cells with buffer+ vehicle at the same time as treating the cells with Menadione. […]
as §4, §5, §6
ii: Rat hepatocytes, 20,000 cells/well, were treated as in i. GSSG and GSH were detected by the method described in A. The ratio GSH/GSSG was calculated as described in B.

Data set [2] deals with A549 cells. As to the kind of experiment: Measurements of cell lysis (LDH release and ATP levels). The note with it: menadione treatment, data not shown. From the text: From the data in Table 7 and FIG. 9, it is clear that measurement of GSSG in the media alone would have indicated some effect of the menadione treatment on the cells.
Where [3] appears, read: 40 uM menadione in HBSS, HBSS buffer transferred from the cells.
[4] abbreviates: 40 uM menadione in HBSS, lysate of cells, buffer removed prior to lysis.
Where [5] appears, read: 40 uM menadione, HBSS buffer not removed prior to addition of PLB.
[6] abbreviates: 40 uM menadione, calculated sum of cell and media.

Turning to `CC1=CC(=O)c2ccccc2C1=O` [Menadione], in the data set on A549 cells [1] (setting [3]), the “GSH, averaged RLU, Media” value is recorded as 3,491,077 RLU and the “GSSG, averaged RLU, Media” value was 2,494,444 RLU. In the data set on A549 cells [1] (setting [4]), the “GSH, averaged RLU, Cell” value is on record as 10,613,488 RLU and the “GSSG, averaged RLU, Cell” value was 464,099 RLU. In addition, in the data set on A549 cells [1] (setting [5]), the “GSH, averaged RLU, Total Well” value is recorded as 12,903,498 RLU and the “GSSG, averaged RLU, Total Well” value is 3,189,598 RLU. In the data set on A549 cells [1] (setting [6]), the “GSH, RLU, Total (Cell + Media)” value is reported as 14,104,565 RLU and the “GSSG, RLU, Total (Cell + Media)” value is listed as 2,958,543 RLU. Besides, in the data set with HepG2 cells, the “Ratio GSH/GSSG, treated” value is reported as 1.5; the “Treated Net RLU, GSH” value was 4162074 RLU; the “Treated Net RLU, GSSG” value is 2364652 RLU. Besides, in the data set on HeLa cells, the “Ratio GSH/GSSG, treated” value turned out to be 2.2; the “Treated Net RLU, GSH” value is on record as 12364719 RLU; the “Treated Net RLU, GSSG” value came out at 5894364 RLU. For the same molecule, in the data set with Jurkat cells (Jurkat cells, 10,000 cells/well), the “Ratio-Treated (GSH/GSSG)” value was determined as 3.8. Besides, the “Ratio-Treated (GSH/GSSG)” value with Jurkat cells (Jurkat cells, 20,000 cells/well) is listed as 3.6. Further, in the data set with Rat hepatocytes, the “Ratio GSH/GSSG, treated” value was found to be 1.1; the “Treated Net RLU, GSH” value was determined as 10722488 RLU; the “Treated Net RLU, GSSG” value was 6900404 RLU. Moreover, the “Cell lysis (LDH release and ATP levels)” value in the data set on A549 cells [2] is “did not suggest that any lysis had taken place”.
